In the NIST ThermoML archive (doi:10.1016/j.tca.2015.06.009):
Numbers after ± are expanded uncertainties.

Key:
[1] = 300 K; 101.33 kPa; Crystal; Photoacoustics
[2] = isobaric coefficient of expansion; settings: 300 K; 101.33 kPa; Crystal; Photoacoustics

Row | thermal diffusivity [1] [m2/s] | isobaric coefficient of expansion [2] | Compound
1 | 0.000116 ± 4e-06 | 1.3e-05 ± 1e-06 1/K | [Cu] [copper]
2 | 9.37e-05 ± 1.6e-06 | 1.5e-05 ± 1e-06 1/K | [Al] [aluminum]
3 | 0.000174 ± 1.2e-05 | 1.4e-05 ± 1e-06 1/K | [Ag] [silver]
